In US11826435B2, “Conduritol aziridine derivatives and uses thereof” (University of Saskatchewan, priority 2017, dated 2023):

Experiments:
GCase = GCase (Homo sapiens (Human), UniProt P04062); details: cited from earlier work; for ki/Ki previously reported: previously reported (ref 44)
[1] = in words; cited from earlier work
[2] = biological target: Cerezyme (Recombinant GCase) (Homo sapiens (Human), UniProt P04062, R534H); assay: Inactivation assay: residual Cerezyme activity with 2,4-DNP-β-Glc substrate; format: biochemical; details: 37° C., pH 5.5
Sequence of Cerezyme (Recombinant GCase) (P04062 40-536 R534H limits assumed): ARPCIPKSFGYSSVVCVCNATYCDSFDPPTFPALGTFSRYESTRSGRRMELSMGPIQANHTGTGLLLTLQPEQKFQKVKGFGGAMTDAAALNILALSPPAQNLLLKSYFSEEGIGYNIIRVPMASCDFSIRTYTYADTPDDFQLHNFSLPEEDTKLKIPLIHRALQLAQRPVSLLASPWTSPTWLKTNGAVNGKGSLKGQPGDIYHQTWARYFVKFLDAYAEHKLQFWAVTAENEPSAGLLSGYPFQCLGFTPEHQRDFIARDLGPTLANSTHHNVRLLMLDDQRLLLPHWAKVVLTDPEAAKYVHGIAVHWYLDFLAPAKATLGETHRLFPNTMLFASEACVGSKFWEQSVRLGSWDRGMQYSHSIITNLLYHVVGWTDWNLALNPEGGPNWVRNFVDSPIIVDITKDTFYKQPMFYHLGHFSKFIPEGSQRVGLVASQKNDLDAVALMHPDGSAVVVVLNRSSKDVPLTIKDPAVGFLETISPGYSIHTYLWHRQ
Method: Inactivation solutions contained a final concentration of 16.55 nM of Cerezyme® (Recombinant GCase) in 200 μL of Reaction Buffer (50 mM acetate, 0.2% v/v Triton X-100, 0.3% w/v sodium taurocholate, pH 5.5). […] These enzyme Reaction Buffers were brought to 37° C. and spiked with a corresponding inhibitor to make the final inhibitor concentration either 20 nM, 40 nM, 60 nM, 80 nM, 120 nM, 160 nM and 200 nM. Once the inhibitor was added this was considered time=0 minutes. Meanwhile a 96 well plate inside a Biotek Synergy 4 hybrid multi-mode reader at 37° C. was being incubated. In the wells of the plate were waiting a high concentration (3.2 mM) of 2,4-DNP-β-Glc substrate in 180 μL of Reaction Buffer. […] Once all the aliquots were added the solution in the wells was measured for absorbance at 400 nm for 8 minutes. […] Inactivation rates for varying inhibitor concentrations were calculated using GraphPad Prism software and Equation 2 (below). […]
Small aliquots of these reaction mixtures were withdrawn and diluted 20-fold in 96 well plates containing a final concentration of 4 mM of the substrate 2,4-DNP-β-D-Glc. […] Residual enzymatic activity at different time points and concentrations was monitored by quantifying the release of 2,4-DNP after 2,4-DNP-3-D-Glc cleavage by Cerezyme®. […]

GCase over GBA2 and GBA3 = GCase over GBA2 and GBA3 (Homo sapiens (Human), UniProt P04062); details: in words; cited from earlier work
Sequence of GCase over GBA2 and GBA3 (P04062 40-536): as the sequence (P04062 40-536 R534H limits assumed) above, with H495R counted along it

[3] = biological target: GCase in the presence of Saposin C (Homo sapiens (Human), UniProt P04062); assay: GCase inactivation rate in the presence of Saposin C; format: biochemical; details: in words
Sequence of GCase in the presence of Saposin C (P04062 40-536): as the sequence (P04062 40-536 R534H limits assumed) above, with H495R counted along it

[4] = biological target: Cerezyme, a recombinant form of GCase (Homo sapiens (Human), UniProt P04062, R534H); details: cited from earlier work
Sequence of Cerezyme, a recombinant form of GCase (P04062 40-536 R534H limits assumed): as the sequence (P04062 40-536 R534H limits assumed) above

Sequence of GCase (P04062 40-536): as the sequence (P04062 40-536 R534H limits assumed) above, with H495R counted along it

**Q.** For butyl conduritol aziridine, which ki/Ki previously reported (GCase) is on record?
**A.** The ki/Ki previously reported was 63.3 ± 1.7 M⁻¹ s⁻¹.

**Q.** Which cell permeability [1] does the source give for “N-octyl conduritol aziridine [Compound 1.7]” here?
**A.** Its cell permeability is “cell permeable”.

**Q.** What about the ki/Ki [2] of the same compound?
**A.** The ki/Ki was 78300 ± 4170 M⁻¹ s⁻¹.

**Q.** What about the ki/Ki (GCase; inhibition of GCase, reported data) of the same compound?
**A.** Its ki/Ki is 25.0 μM^−1/min^−1.

**Q.** And the ki/Ki previously reported (GCase)?
**A.** The ki/Ki previously reported was 61170 ± 1170 M⁻¹ s⁻¹.

**Q.** What about the ki (GCase; rate constant of inactivation of GCase, reported data) of the same compound?
**A.** The ki was 0.120 min⁻¹.

**Q.** And the “selectivity for GCase over GBA2 and GBA3” value (GCase over GBA2 and GBA3)?
**A.** The value was “selective inhibition of GCase over GBA2 and GBA3”.

**Q.** What about the “inactivation rates towards GCase with Saposin C” value [3] of the same compound?
**A.** The value was “enhanced”.

**Q.** With hexyl conduritol aziridine as the compound, how does the ki/Ki previously reported (GCase) read?
**A.** Its ki/Ki previously reported is 10700 ± 500 M⁻¹ s⁻¹.

**Q.** Which ki/Ki [2] does the source give for `O[C@H]1[C@H](O)[C@@H](O)[C@H]2[C@@H]([C@@H]1O)N2CCCCC#Cc1ccc(F)cc1` (mixture of isomers) [Compound 34, (±)-(1R,2S,3R,4R,5S,6S)-7-(6-(4-fluorophenyl)hex-5-yn-1-yl)-7-azabicyclo[4.1.0]heptane-2,3,4,5-tetraol] here?
**A.** The ki/Ki was 85000 ± 1670 M⁻¹ s⁻¹.

**Q.** Which t½ of glucosyl-enzyme [4] does the source give for `O=[N+]([O-])c1ccc(OC2O[C@H](CO)[C@@H](O)[C@H](O)[C@H]2F)c([N+](=O)[O-])c1` (stereo partly drawn) [Compound 1.1, β-2,4-dinitrophenyl-fluorodeoxyglucose] here?
**A.** The t½ of glucosyl-enzyme was greater than 21.67 h.
